Where “and” joins values, the source holds several entries; their conditions need not be identical. Equal values may be shown once.
Tested on: BRD2
Experiment: In-Cell Western for BRD2 levels in Hep G2 cells
Assay type: cell-based
Details: then 9 (10 μM, 4 h); for Value (Mean ± SD): Relative BRD2 levels remaining in Hep G2 cells after treatment with compounds followed by treatment with 9, with DMSO control for normalization: qualitative ICW assay, Supplementary Table 1; for BRD2/Vinculin intensity (relative to control group): Hep G2 cells, single repeats, Fig. 4h
Protocol: Hep G2 cells were seeded in 96-well plates and incubated for 24 h. Compounds were added for the indicated time at the indicated concentration. Cells were then washed once with PBS and fixed with 4% paraformaldehyde for 30 min at room temperature. The fixed cells were permeabilized with 0.5 % Triton-X100 for 15 min followed by block with Intercept® Blocking Buffer (LI-COR Biosciences, 927-70001) for 1 h at room temperature. Primary antibodies for BRD2 (1:800) and Vinculin (1:2000) were diluted with LI-COR buffer and incubated with the cells at 4 °C overnight. Cells were washed with PBS-T, and the secondary antibodies conjugated to IRDye (1:1000, LI-COR Biosciences) were added to the cells for 1 h at room temperature. After washing the cells, the signal was recorded with the Odyssey® CLx Infrared Imaging System (LI-COR Biosciences) and the protein levels were analyzed by Image Studio (LI-COR Biosciences). BRD2 protein levels were normalized to the levels of reference protein vinculin.

[1] = pretreated with compound at 30 μM 1 h

SMILES	Value (Mean ± SD): Relative BRD2 levels remaining in Hep G2 cells after treatment with compounds followed by treatment with 9, with DMSO control for normalization (pretreated at 30 μM 1 h)	BRD2/Vinculin intensity (relative to control group) [1]	BRD2/Vinculin intensity (relative to control group) (pretreated with MLN4924 at 1 μM 1 h)	Value (Mean ± SD): Relative BRD2 levels remaining in Hep G2 cells after treatment with compounds followed by treatment with 9, with DMSO control for normalization (MLN4924 at 1 μM 1 h)
O=C1C(=Cc2cc(Br)c(OCCO)c(Br)c2)c2ccccc2N1c1ccccc1 [Compound 47]	72.76 ± 4.44			
COc1cc2c(cc1OC)C(=Cc1ccc(OC)c(OC)c1OC)C(=O)N2 [Compound 35]	43.80 ± 10.34			
Cc1cccc(-n2c(C=C3C(=O)Nc4ccc(Br)cc43)nc3ccccc3c2=O)c1 [Compound 23]	28.93 ± 2.95	33.3864 and 29.794 and 26.5816 and 25.9636		
COc1cc2c(cc1OC)C(=CC=Cc1ccc(N(C)C)cc1)C(=O)N2 [Compound 29]	31.86 ± 2.35	35.199 and 32.8298 and 30.2931 and 29.1162		
CCOc1cccc(C=C2C(=O)Nc3ccc(Br)cc32)c1O [Compound 34]	38.78 ± 7.19	32.5833 and 35.4683 and 36.0421 and 51.0354		
O=C1Nc2ccc(Br)cc2C1=Cc1ccc(-c2ccc(Cl)cc2)o1 [Compound 24]	32.30 ± 3.56	33.2997 and 37.4269 and 27.7324 and 30.7224		
CCOc1c(O)ccc(C=C2C(=O)Nc3ccc(Br)cc32)c1[N+](=O)[O-] [Compound 39]	46.41 ± 4.18	52.2917 and 48.4313 and 42.763 and 42.1712		
O=C1Nc2cc(Cl)c(Cl)cc2C1=Cc1cc(Br)c(OCCO)c(Br)c1 [Compound 33]	38.55 ± 3.55	39.4036 and 41.0431 and 32.5156 and 41.2316		
CC(=O)N1C(=O)C(=Cc2cc(Br)c(OCCO)c(Br)c2)c2cc(Br)ccc21 (mixture of isomers) [Compound 40]	49.83 ± 3.84	50.1992 and 43.5119 and 52.0339 and 53.5687		
O=C1Nc2cc(Br)ccc2C1=Cc1cc(Br)c(OCCO)c(Br)c1 [Compound 46]	70.23 ± 9.63			
Cc1cc(C=C2C(=O)Nc3cc(Cl)ccc32)c(C)n1-c1ccc(Cl)cc1 [Compound 20]	23.05 ± 3.61	18.6668 and 28.7239 and 22.4508 and 22.3561		
CCOc1ccc(Br)c(C=C2C(=O)Nc3ccc(Br)cc32)c1 [Compound 30]	36.18 ± 4.38	30.1563 and 42.48 and 35.4039 and 36.6749		
O=C1Nc2ccccc2C1=CC=Cc1ccccc1 [Compound 28]	27.19 ± 3.29	22.3518 and 31.2898 and 26.3948 and 28.7193		
Cc1ccc(C=C2C(=O)Nc3ccc(Br)cc32)o1 [Compound 21]	27.96 ± 5.89	35.3621 and 27.9558 and 29.5667 and 18.9355		
NS(=O)(=O)OC[C@@H]1C[C@@H](n2ccc3c(N[C@H]4CCc5ccccc54)ncnc32)C[C@@H]1O [MLN4924, reference compound]			108.675 and 116.153 and 114.111	112.98 ± 3.16
COc1cc(C)c(C=C2C(=O)Nc3ccccc32)cc1C [Compound 31]	36.20 ± 1.35	36.8879 and 36.7406 and 37.2822 and 33.8929		
CN1C(=O)C(=Cc2cc(Br)c(OCCO)c(Br)c2)c2cc(Br)ccc21 (mixture of isomers) [Compound 45]	67.69 ± 4.30	68.8291 and 61.2096 and 73.2245 and 67.5028		
COc1cc(OC)c(OC)cc1C=C1C(=O)Nc2ccc(Br)cc21 [Compound 32]	38.22 ± 2.33	37.3799 and 42.1343 and 35.9887 and 37.382		
O=C1Nc2c(Br)cccc2C1=Cc1cc(Br)c(OCCO)c(Br)c1 [Compound 44]	57.04 ± 9.16	58.0241 and 42.9089 and 68.5528 and 58.6725		
CCOC(=O)c1ccc(-c2ccc(C=C3C(=O)Nc4ccc(Br)cc43)o2)cc1 [Compound 25]	32.83 ± 1.96	36.1651 and 31.9974 and 32.0528 and 31.1097		
COc1cc(C=C2C(=O)N(C(C)=O)c3ccc(Br)cc32)c(Br)cc1OC(C)=O [Compound 37]	46.27 ± 6.95	55.6586 and 50.2433 and 39.6211 and 39.558		
CCn1cc(C=C2C(=O)N(C)c3ccccc32)c2ccccc21 [Compound 22]	28.31 ± 1.06	27.5998 and 30.1143 and 27.5093 and 28.0162		
O=C1Nc2cccc(Br)c2C1=Cc1cc(Br)c(OCCO)c(Br)c1 [Compound 43]	55.89 ± 8.40	65.9619 and 44.3044 and 51.8651 and 61.4106		
COc1cc(C=C2C(=O)Nc3ccc(Br)cc32)ccc1O [Compound 36]	44.21 ± 2.82	48.1488 and 40.4194 and 43.1435 and 45.121		
O=C1Nc2cc(Cl)ccc2C1=Cc1c[nH]c2ccc(Br)cc12 [Compound 19]	22.45 ± 2.48	19.139 and 23.0411 and 26.0065 and 21.6242		
COc1cc(C=C2C(=O)Nc3ccc(Br)cc32)cc(OC)c1OC [Compound 38]	46.38 ± 2.20	42.8563 and 47.1155 and 46.6713 and 48.8801		
O=C1Nc2ccc(Br)cc2C1=Cc1ccc2ccccc2n1 [Compound 26]	38.97 ± 1.11	39.8782 and 39.8556 and 38.9972 and 37.1452		
COc1cccc(C=C2C(=O)Nc3ccc(Br)cc32)c1OCc1ccccc1 [Compound 27]	25.66 ± 3.60	30.4848 and 27.4717 and 21.0618 and 23.6161		
O=C1Nc2ccc([N+](=O)[O-])cc2C1=Cc1cc(Br)c(OCCO)c(Br)c1 [Compound 41]	51.57 ± 11.55	35.3006 and 58.464 and 60.939		
